From the supplement of paper PMC6045584
± gives the standard deviation of the averaged measurements.

Assays:
[1] = compound: CC(=O)NCC(=O)N1[C@@H]2CC[C@H]1c1ccc(Nc3ncc(C(F)(F)F)c(NC4CCC4)n3)cc12; test: surviving fraction relative to DMSO-only wells; higher = less growth inhibition; conditions: exposure time: 5 days
Outline: (§1)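 Viability values are CellTiter-Glo luminescence readings, given as surviving fraction against the median of DMSO-only wells. The readings were taken after 10 minutes at room temperature, following five days of continuous exposure to inhibitors at 0.5, 1, 5, 10, 50, 100, 500 and 1000 nM that began 24 hours after log-phase tumour cell lines were seeded at 250–500 cells per well in 384-well plates. Every line was screened three times and kept only if replicate Pearson r >0.7 and median Z' >0.3.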

CELECOXIB [2] = compound: T1, Cc1ccc(-c2cc(C(F)(F)F)nn2-c2ccc(S(N)(=O)=O)cc2)cc1 [CELECOXIB]; test: as above; conditions: exposure time: 5 days
Outline: as §1

GEFITINIB [3] = compound: T2, COc1cc2ncnc(Nc3ccc(F)c(Cl)c3)c2cc1OCCCN1CCOCC1 [GEFITINIB]; test: as above; conditions: exposure time: 5 days
Outline: as §1

YM155 [4] = compound: T3, COCC[n+]1c2c(n(Cc3cnccn3)c1C)C(=O)c1ccccc1C2=O [YM155]; test: as above; conditions: exposure time: 5 days
Outline: as §1

CAMPTOTHECIN [5] = compound: T4, CC[C@@]1(O)C(=O)OCc2c1cc1n(c2=O)Cc2cc3ccccc3nc2-1 [CAMPTOTHECIN]; test: as above; conditions: exposure time: 5 days
Outline: as §1

OSI-906 [6] = compound: T5, C[C@]1(O)C[C@@H](c2nc(-c3ccc4ccc(-c5ccccc5)nc4c3)c3c(N)nccn32)C1 [OSI-906]; test: as above; conditions: exposure time: 5 days
Outline: as §1

[7] = compound: CC(=O)c1c(C)c2cnc(Nc3ccc(N4CCNCC4)cn3)nc2n(C2CCCC2)c1=O; test: as above; conditions: exposure time: 5 days
Outline: as §1

CARBOPLATIN [8] = compound: T6, O=C(O)C1(C(=O)O)CCC1.[NH2-].[NH2-].[Pt+2] [CARBOPLATIN]; test: as above; conditions: exposure time: 5 days
Outline: as §1

PACLITAXEL [9] = compound: T7, CC(=O)O[C@H]1C(=O)[C@@]2(C)[C@H]([C@H](OC(=O)c3ccccc3)[C@]3(O)C[C@H](OC(=O)[C@H](O)[C@@H](NC(=O)c4ccccc4)c4ccccc4)C(C)=C1C3(C)C)[C@]1(OC(C)=O)CO[C@@H]1C[C@@H]2O [PACLITAXEL]; test: as above; conditions: exposure time: 5 days
Outline: as §1

[10] = compound: CC(=O)NCC(=O)N1[C@@H]2CC[C@H]1c1ccc(Nc3ncc(C(F)(F)F)c(NC4CCC4)n3)cc12; test: area under dose-response curve of surviving fraction (unscaled, Aref=0) (surviving fraction x log10(nM)); higher = more resistant; conditions: exposure time: 5 days; dose range 0.5-1000 nM
Outline: (§2)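 Inhibitor was applied to tumour cell lines at eight concentrations (0.5 to 1000 nM) for five days in 384-well plates. Luminescence from CellTiter-Glo, scaled to DMSO-only wells, gave surviving fractions in three screens per line, and these were fitted by 3-parameter logistic regression with the drc R package. The area under the curve is an unscaled activity area. Aref was 0, and dose was on a log10 scale.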

CELECOXIB [11] = compound: T1, CELECOXIB; test: as above; conditions: exposure time: 5 days; dose range 0.5-1000 nM
Outline: as §2

GEFITINIB [12] = compound: T2, GEFITINIB; test: as above; conditions: exposure time: 5 days; dose range 0.5-1000 nM
Outline: as §2

YM155 [13] = compound: T3, YM155; test: as above; conditions: exposure time: 5 days; dose range 0.5-1000 nM
Outline: as §2

CAMPTOTHECIN [14] = compound: T4, CAMPTOTHECIN; test: as above; conditions: exposure time: 5 days; dose range 0.5-1000 nM
Outline: as §2

OSI-906 [15] = compound: T5, OSI-906; test: as above; conditions: exposure time: 5 days; dose range 0.5-1000 nM
Outline: as §2

CARBOPLATIN [16] = compound: T6, CARBOPLATIN; test: as above; conditions: exposure time: 5 days; dose range 0.5-1000 nM
Outline: as §2

PACLITAXEL [17] = compound: T7, PACLITAXEL; test: as above; conditions: exposure time: 5 days; dose range 0.5-1000 nM
Outline: as §2

SG32 HEADNECK was tested, and the surviving fraction ([1]; 0.5 nM) was 1.19 ± 0.078, the surviving fraction ([1]; 1 nM) was 1.02 ± 0.12 and the surviving fraction ([1]; 5 nM) was 0.952 ± 0.044. For the same test system, the surviving fraction ([1]; 10 nM) was 1.14 ± 0.031, the surviving fraction ([1]; 50 nM) was 0.758 ± 0.26 and the surviving fraction ([1]; 100 nM) was 0.474 ± 0.036. The surviving fraction ([1]; 500 nM) was 0.432 ± 0.095, the surviving fraction ([1]; 1000 nM) was 0.398 ± 0.023 and the surviving fraction (CELECOXIB [2]; 0.5 nM) was 1.37 ± 0.15. It also gave a surviving fraction (CELECOXIB [2]; 1 nM) of 1.15 ± 0.063, a surviving fraction (CELECOXIB [2]; 5 nM) of 1.29 ± 0.13 and a surviving fraction (CELECOXIB [2]; 10 nM) of 1.18 ± 0.26. The surviving fraction (CELECOXIB [2]; 50 nM) was 1.22 ± 0.063, the surviving fraction (CELECOXIB [2]; 100 nM) was 1.1 ± 0.12 and the surviving fraction (CELECOXIB [2]; 500 nM) was 1.64 ± 0.21. The surviving fraction (CELECOXIB [2]; 1000 nM) was 1.19 ± 0.062, the surviving fraction (GEFITINIB [3]; 0.5 nM) was 1.33 ± 0.14 and the surviving fraction (GEFITINIB [3]; 1 nM) was 1.37 ± 0.097. The surviving fraction (GEFITINIB [3]; 5 nM) was 1.39 ± 0.32, the surviving fraction (GEFITINIB [3]; 10 nM) was 1.19 ± 0.24 and the surviving fraction (GEFITINIB [3]; 50 nM) was 1.28 ± 0.066. The surviving fraction (GEFITINIB [3]; 100 nM) was 1.1 ± 0.12, the surviving fraction (GEFITINIB [3]; 500 nM) was 0.826 ± 0.15 and the surviving fraction (GEFITINIB [3]; 1000 nM) was 0.961 ± 0.094. The surviving fraction (YM155 [4]; 0.5 nM) was 0.841 ± 0.053, the surviving fraction (YM155 [4]; 1 nM) was 0.83 ± 0.12 and the surviving fraction (YM155 [4]; 5 nM) was 0.438 ± 0.017. The surviving fraction (YM155 [4]; 10 nM) was 0.238 ± 0.036, the surviving fraction (YM155 [4]; 50 nM) was 0.0633 ± 0.027 and the surviving fraction (YM155 [4]; 100 nM) was 0.025 ± 0.0036. The surviving fraction (YM155 [4]; 500 nM) was 0.0197 ± 0.0021, the surviving fraction (YM155 [4]; 1000 nM) was 0.0227 ± 0.0011 and the surviving fraction (CAMPTOTHECIN [5]; 0.5 nM) was 0.308 ± 0.056. It also gave a surviving fraction (CAMPTOTHECIN [5]; 1 nM) of 0.492 ± 0.0071, a surviving fraction (CAMPTOTHECIN [5]; 5 nM) of 0.336 ± 0.0083 and a surviving fraction (CAMPTOTHECIN [5]; 10 nM) of 0.447 ± 0.071. For the same test system, the surviving fraction (CAMPTOTHECIN [5]; 50 nM) was 0.25 ± 0.036, the surviving fraction (CAMPTOTHECIN [5]; 100 nM) was 0.263 ± 0.037 and the surviving fraction (CAMPTOTHECIN [5]; 500 nM) was 0.0417 ± 0.0055. The surviving fraction (CAMPTOTHECIN [5]; 1000 nM) was 0.026 ± 0.002, the surviving fraction (OSI-906 [6]; 0.5 nM) was 0.714 ± 0.15 and the surviving fraction (OSI-906 [6]; 1 nM) was 0.689 ± 0.0095. It also gave a surviving fraction (OSI-906 [6]; 5 nM) of 0.767 ± 0.13, a surviving fraction (OSI-906 [6]; 10 nM) of 0.632 ± 0.057 and a surviving fraction (OSI-906 [6]; 50 nM) of 0.845 ± 0.021. It also gave a surviving fraction (OSI-906 [6]; 100 nM) of 0.793 ± 0.071, a surviving fraction (OSI-906 [6]; 500 nM) of 0.596 ± 0.084 and a surviving fraction (OSI-906 [6]; 1000 nM) of 0.498 ± 0.048. The surviving fraction ([7]; 0.5 nM) was 1.05 ± 0.16, the surviving fraction ([7]; 1 nM) was 1.31 ± 0.3 and the surviving fraction ([7]; 5 nM) was 1.2 ± 0.11. For the same test system, the surviving fraction ([7]; 10 nM) was 1.09 ± 0.082, the surviving fraction ([7]; 50 nM) was 0.942 ± 0.11 and the surviving fraction ([7]; 100 nM) was 0.993 ± 0.16. The surviving fraction ([7]; 500 nM) was 0.699 ± 0.059, the surviving fraction ([7]; 1000 nM) was 0.721 ± 0.03 and the surviving fraction (CARBOPLATIN [8]; 0.5 nM) was 1.12 ± 0.12. For the same test system, the surviving fraction (CARBOPLATIN [8]; 1 nM) was 1.07 ± 0.17, the surviving fraction (CARBOPLATIN [8]; 5 nM) was 1.15 ± 0.17 and the surviving fraction (CARBOPLATIN [8]; 10 nM) was 1.17 ± 0.051. The surviving fraction (CARBOPLATIN [8]; 50 nM) was 1.27 ± 0.12, the surviving fraction (CARBOPLATIN [8]; 100 nM) was 1.38 ± 0.35 and the surviving fraction (CARBOPLATIN [8]; 500 nM) was 1.16 ± 0.2. For the same test system, the surviving fraction (CARBOPLATIN [8]; 1000 nM) was 1.04 ± 0.17, the surviving fraction (PACLITAXEL [9]; 0.5 nM) was 0.906 ± 0.26 and the surviving fraction (PACLITAXEL [9]; 1 nM) was 0.603 ± 0.093. For the same test system, the surviving fraction (PACLITAXEL [9]; 5 nM) was 0.275 ± 0.032, the surviving fraction (PACLITAXEL [9]; 10 nM) was 0.259 ± 0.015 and the surviving fraction (PACLITAXEL [9]; 50 nM) was 0.281 ± 0.062. The surviving fraction (PACLITAXEL [9]; 100 nM) was 0.275 ± 0.02, the surviving fraction (PACLITAXEL [9]; 500 nM) was 0.244 ± 0.02 and the surviving fraction (PACLITAXEL [9]; 1000 nM) was 0.218 ± 0.021. The “area under dose-response curve” value [10] was 2.57, the “area under dose-response curve” value (CELECOXIB [11]) was 4.18 and the “area under dose-response curve” value (GEFITINIB [12]) was 4.01. The “area under dose-response curve” value (YM155 [13]) was 0.928, the “area under dose-response curve” value (CAMPTOTHECIN [14]) was 0.888 and the “area under dose-response curve” value (OSI-906 [15]) was 2.28. The “area under dose-response curve” value (CARBOPLATIN [16]) was 3.86 and the “area under dose-response curve” value (PACLITAXEL [17]) was 1.08.
